Test results from patent publication US6953813B1, “2-Aminotetralin derivatives for the therapy of glaucoma” (Chiesi Farmaceutici S.p.A., priority 1999, dated 2005).

Key:
[1] = in vivo; cited from earlier work
[2] = system: rabbit; conditions: cited from earlier work; for effect on intraocular pressure: ophthalmic drops
[3] = system: normotensive Dutch Belted rabbits; assay: Intraocular pressure (IOP) after single dose in normotensive rabbits; type: in vivo, rabbit; conditions: 0.2% w/v
Method: Water (pH 4.5, made isotonic with sodium chloride), was selected as vehicle for the IOP-studies.
Five concentrations (0.01, 0.05, 0.2, 0.5 and 1.0% w/v) of CHF 1035 were studied. Brimonidine (0.2% w/v) was used as a positive, and vehicle (water pH 4.5) as a negative control.
The experimental animals used were normotensive Dutch Belted rabbits of either gender (n=6). A single drop (25 μl) of the test solution was instilled unilaterally into the left eye (treated eye). IOP of the rabbits (treated and untreated eyes) was measured at 1 and 0 h before, and at 0.5, 1, 2, 3, 4, 5, 6 and 7 h after topical eyedrop administration. IOP at the time of eyedrop administration (0 h) was used as a baseline value. IOP was measured using a BioRad Pneumatonometer. More detailed description of the IOP measurement procedure can be found in Pharm. Res. 14, 1738-1743, 1997 and Curr. Eye Res. 14, 791-797, 1995. All the studies were set up using a randomized crossover design. At least 72 h of wash-out time was allowed for each rabbit between dosings. The irritation caused by an instilled eyedrop were evaluated by recording the extent of eyelid closure after topical eyedrop administration.

In the case of `CCCN(CCc1cccs1)C1CCc2c(O)cccc2C1` (stereo not drawn) [2-(N-propyl-N-2-thienylethylamino)-5-hydroxytetralin], the ocular side effects [1] is listed as “can also induce eye irritation”.
In the case of `NC1CCc2cc(O)c(O)cc2C1` (stereo not drawn) [6,7-dihydroxy-2-aminotetralin], the “effect on intraocular pressure” value [2] is given as “gives rise to eye hypotension in the rabbit”.
With `Brc1c(NC2=NCCN2)ccc2nccnc12` [Brimonidine, reference compound] the “IOP changes (mean ± SEM) in the treated eye” value ([3]; 0 min) was 0.0 ± 0.0 mmHg, the “IOP changes (mean ± SEM) in the treated eye” value ([3]; 30 min) was −2.7 ± 0.9 mmHg and the “IOP changes (mean ± SEM) in the treated eye” value ([3]; 60 min) was −7.8 ± 0.9 mmHg. For the same molecule, the “IOP changes (mean ± SEM) in the treated eye” value ([3]; 120 min) was −6.2 ± 1.4 mmHg, the “IOP changes (mean ± SEM) in the treated eye” value ([3]; 180 min) was −3.9 ± 0.8 mmHg and the “IOP changes (mean ± SEM) in the treated eye” value ([3]; 240 min) was −3.4 ± 0.7 mmHg. For the same molecule, the “IOP changes (mean ± SEM) in the treated eye” value ([3]; 300 min) was −2.4 ± 0.7 mmHg, the “IOP changes (mean ± SEM) in the treated eye” value ([3]; 360 min) was −0.4 ± 0.6 mmHg and the “IOP changes (mean ± SEM) in the treated eye” value ([3]; 420 min) was 0.2 ± 0.3 mmHg. For the same molecule, the “IOP changes (mean ± SEM) in the untreated eye” value ([3]; 0 min) was 0.0 ± 0.0 mmHg, the “IOP changes (mean ± SEM) in the untreated eye” value ([3]; 30 min) was −3.2 ± 1.2 mmHg and the “IOP changes (mean ± SEM) in the untreated eye” value ([3]; 60 min) was −8.7 ± 0.8 mmHg. For the same molecule, the “IOP changes (mean ± SEM) in the untreated eye” value ([3]; 120 min) was −3.3 ± 1.3 mmHg, the “IOP changes (mean ± SEM) in the untreated eye” value ([3]; 180 min) was −1.7 ± 0.9 mmHg and the “IOP changes (mean ± SEM) in the untreated eye” value ([3]; 240 min) was −2.1 ± 1.0 mmHg. For the same molecule, the “IOP changes (mean ± SEM) in the untreated eye” value ([3]; 300 min) was −0.6 ± 0.9 mmHg, the “IOP changes (mean ± SEM) in the untreated eye” value ([3]; 360 min) was 0.1 ± 0.6 mmHg and the “IOP changes (mean ± SEM) in the untreated eye” value ([3]; 420 min) was 0.0 ± 0.6 mmHg.
In the case of `CNCC(O)c1ccc(OC(=O)C(C)(C)C)c(OC(=O)C(C)(C)C)c1` (stereo not drawn) [Dipivefrin], the ocular side effects [1] is listed as “pain in the eye and in the superciliary arch as well as corneal vascularization and opacification during long-term use”.
In the case of `CN(C)C1CCc2c(ccc(O)c2O)C1` (stereo not drawn) [M-7, N,N-dimethyl-5,6-dihydroxy-2-aminotetralin], the “concentration inducing eye irritation” value ([2]; in vivo) is given as 0.1% and the “effect on intraocular pressure” value [2] is given as “active as well in reducing intraocular pressure”.
For `CN(C)C1CCc2cc(O)c(O)cc2C1` (stereo not drawn) [N,N-dimethyl-6,7-dihydroxy-2-aminotetralin], the “effect on intraocular pressure” value [2] is listed as “gives rise to eye hypotension in the rabbit”.
